Test [1] addresses T1, human vasopressin V1b receptor (Homo sapiens, UniProt P47901).
T1 sequence (P47901 1-424): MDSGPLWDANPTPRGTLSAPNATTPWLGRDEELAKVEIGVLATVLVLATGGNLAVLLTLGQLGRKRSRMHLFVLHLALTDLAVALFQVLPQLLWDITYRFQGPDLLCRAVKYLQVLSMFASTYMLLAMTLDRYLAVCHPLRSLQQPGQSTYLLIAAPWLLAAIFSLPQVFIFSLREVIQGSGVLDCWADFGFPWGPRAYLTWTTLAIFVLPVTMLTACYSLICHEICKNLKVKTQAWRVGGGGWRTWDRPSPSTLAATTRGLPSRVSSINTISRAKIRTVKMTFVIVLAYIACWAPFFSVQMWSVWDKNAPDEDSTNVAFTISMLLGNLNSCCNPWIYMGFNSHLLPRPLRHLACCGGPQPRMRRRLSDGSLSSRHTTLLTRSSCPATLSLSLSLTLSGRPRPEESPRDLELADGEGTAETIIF
Kind of test: biochemical.

Test [2] deals with human vasopressin V1a receptor (Homo sapiens, UniProt P37288). In words: Vasopressin V1a receptor binding assay (125I-AVP displacement, CHO-K1 membranes). The conditions noted are these: selectivity quotient, human V1a vs human V1b receptor binding.

Structures are written as SMILES.

human vasopressin V1a receptor, sequence (P37288 whole entry): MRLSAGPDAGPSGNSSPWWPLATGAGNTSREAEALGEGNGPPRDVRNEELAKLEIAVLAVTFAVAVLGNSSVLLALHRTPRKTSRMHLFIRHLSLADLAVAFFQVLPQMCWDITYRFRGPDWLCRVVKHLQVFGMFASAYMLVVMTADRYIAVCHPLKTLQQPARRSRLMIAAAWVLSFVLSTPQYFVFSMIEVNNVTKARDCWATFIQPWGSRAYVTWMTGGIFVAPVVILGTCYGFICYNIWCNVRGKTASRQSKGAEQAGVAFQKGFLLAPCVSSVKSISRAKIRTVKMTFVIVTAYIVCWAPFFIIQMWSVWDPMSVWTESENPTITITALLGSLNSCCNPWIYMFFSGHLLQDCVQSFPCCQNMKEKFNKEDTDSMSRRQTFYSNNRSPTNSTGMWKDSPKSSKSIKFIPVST

The term Ki denotes a measure of affinity in units of concentration, obtained from inhibition or displacement. The low end stands for a stronger hold on the target, the high end for a looser hold on the target. Consider `CCOc1ncccc1[C@]1(NC(=O)N2CC(N3CCC(N4CCOCC4)CC3)C2)C(=O)N(S(=O)(=O)c2ccc(OC)cc2OC)c2ccc(C#N)cc21` [Example 1, (S)—N-(5-cyano-1-((2,4-dimethoxyphenyl)sulfonyl)-3-(2-ethoxypyridin-3-yl)-2-oxoindolin-3-yl)-3-(4-morpholinopiperidin-1-yl)azetidine-1-carboxamide], for which the Ki in test [1] was under 1 nM. Also, the “Ki(h-V1a)/Ki(h-V1b)” value in test [2] was “+++ (>75)”.

For the compound `CCOc1ncccc1[C@]1(NC(=O)N2CC(N3CCC(N(C)C4COC4)CC3)C2)C(=O)N(S(=O)(=O)c2ccc(OC)cc2OC)c2ccc(C#N)cc21` [Example 2, (S)—N-(5-cyano-1-((2,4-dimethoxyphenyl)sulfonyl)-3-(2-ethoxypyridin-3-yl)-2-oxoindolin-3-yl)-3-(4-(methyl(oxetan-3-yl)amino)piperidin-1-yl)azetidine-1-carboxamide], the Ki in test [1] was under 1 nM. The “Ki(h-V1a)/Ki(h-V1b)” value in test [2] is given as “+++ (>75)”.

`COc1ccc(S(=O)(=O)N2C(=O)[C@@](NC(=O)N3CC(N4CCC(N5CCOCC5)CC4)C3)(c3cccnc3OC)c3cc(C#N)ccc32)c(OC)c1` [Example 3, (S)—N-(5-Cyano-1-((2,4-dimethoxyphenyl)sulfonyl)-3-(2-methoxypyridin-3-yl)-2-oxoindolin-3-yl)-3-(4-morpholinopiperidin-1-yl)azetidine-1-carboxamide] came in with a Ki in test [1] of under 1 nM. In addition, the “Ki(h-V1a)/Ki(h-V1b)” value in test [2] is reported as “+++ (>75)”.

As to `COc1ccc(S(=O)(=O)N2C(=O)[C@@](NC(=O)N3CC(N4CCC(N(C)C5COC5)CC4)C3)(c3cccnc3OC)c3cc(C#N)ccc32)c(OC)c1` [Example 4, (S)—N-(5-Cyano-1-((2,4-dimethoxyphenyl)sulfonyl)-3-(2-methoxypyridin-3-yl)-2-oxoindolin-3-yl)-3-(4-(methyl(oxetan-3-yl)amino)piperidin-1-yl)azetidine-1-carboxamide], in test [1], the Ki was in the range of 1 to 10 nM. For the same compound, in test [2], the “Ki(h-V1a)/Ki(h-V1b)” value was “+++ (>75)”.

Consider `CCOc1ncccc1[C@]1(NC(=O)N2CC(N3CCC(N(CC)C4COC4)CC3)C2)C(=O)N(S(=O)(=O)c2ccc(OC)cc2OC)c2ccc(C#N)cc21` [Example 5, (S)—N-(5-Cyano-1-((2,4-dimethoxyphenyl)sulfonyl)-3-(2-ethoxypyridin-3-yl)-2-oxoindolin-3-yl)-3-(4-(ethyl(oxetan-3-yl)amino)piperidin-1-yl)azetidine-1-carboxamide], for which the Ki in test [1] lay within 1 to 10 nM. Also, the “Ki(h-V1a)/Ki(h-V1b)” value in test [2] is “+++ (>75)”.

`CCOc1ncccc1[C@]1(NC(=O)N2CC(N3CCC(N4CCOCC4)CC3)C2)C(=O)N(S(=O)(=O)c2ccc(OC)cc2OC)c2ccc(Cl)cc21` [Example 13, (S)—N-(5-Chloro-1-((2,4-dimethoxyphenyl)sulfonyl)-3-(2-ethoxypyridin-3-yl)-2-oxoindolin-3-yl)-3-(4-morpholinopiperidin-1-yl)azetidine-1-carboxamide] displayed a Ki in test [1] of under 1 nM.

Turning to `CCOc1ncccc1[C@]1(NC(=O)N2CC(N3CCC(N(C)C4COC4)CC3)C2)C(=O)N(S(=O)(=O)c2ccc(OC)cc2OC)c2ccc(Cl)cc21` [Example 14, (S)—N-(5-Chloro-1-((2,4-dimethoxyphenyl)sulfonyl)-3-(2-ethoxypyridin-3-yl)-2-oxoindolin-3-yl)-3-(4-(methyl(oxetan-3-yl)amino)piperidin-1-yl)azetidine-1-carboxamide], in test [1], the inhibition constant Ki was under 1 nM.

`CCOc1ncccc1[C@]1(NC(=O)N2CC(N3CCC(N4CCOCC4)CC3)C2)C(=O)N(S(=O)(=O)c2ccc(F)cc2F)c2ccc(C#N)cc21` [Example 26, (S)—N-(5-Cyano-1-((2,4-difluorophenyl)sulfonyl)-3-(2-ethoxypyridin-3-yl)-2-oxoindolin-3-yl)-3-(4-morpholinopiperidin-1-yl)azetidine-1-carboxamide] yielded an inhibition constant Ki in test [1] of 1 to 10 nM.

Values taken from patent US9840495B2, “Oxindole derivatives carrying a piperidyl-substituted azetidinyl substituent and use thereof for treating vasopressine-related diseases” (AbbVie Deutschland GmbH & Co. KG, priority 2013, dated 2017).
